Tested on: Hedgehog protein signaling pathway
Assay: Inhibition of SAG-induced alkaline phosphatase activity (differentiation) in C3H10T1/2 cells
Assay type: cell-based
Conditions: Mus musculus; for inhibition at 10 µM: C3H 10T1/2, 10 μM test compound, percentage of alkaline phosphatase activity induced by SAG; for IC50: C3H 10T1/2, after induction by 0.1 μM SAG
Procedure: The effect of compounds with formula (I) as claimed in the invention on inhibition of the Hedgehog protein signaling pathway was determined by analysis of differentiation in the pluripotent fibroblast cell line C3H10T1/2 after activation of this pathway in these cells using a synthetic activator: SAG.
The compounds with formula (I) to be tested were dissolved in dimethylsulfoxide to a concentration of 10 mM, then stored at a temperature of −20° C. until use.
The pluripotent fibroblast cell line C3H10T1/2 (ATCC) was cultivated under the conditions recommended by the ATCC. These cells were activated using 0.1 μM of SAG, employing the methods described by Chen et al., Proc. Natl. Acad. Sci. USA, 2002, 99, 14071 and Frank-Kamenetsky et al., J. Biol., 2002, 1, 10.
Activation with SAG provokes differentiation of the cell line and allows them to express alkaline phosphatase. It is then possible to measure the activity of the Hedgehog protein signaling pathway by measuring the alkaline phosphatase activity.
The C3H10T1/2 cells were plated onto 96-well plates at a density of […], 24 hours before addition of the test compounds in a concentration of 1 nM to 30 μM and in the presence of 0.1 μM of SAG using DMEM supplemented with 10% fetal calf serum as the culture medium. The tests were carried out in quadruplicate. The plates were then incubated for 5-6 days at a temperature of 37° C. in an atmosphere of 5% CO2. The cells were washed in a cold phosphate buffer (“Phosphate Buffer Serum”: PBS) then lysed by sonication at 4° C. in 50 μl of a solution containing 0.9% of NaCl and 0.2% of Triton X-100.
By way of comparison, the activity of a known inhibitor of the Hedgehog protein signaling pathway, CURIS 61 414, as described, for example, by Frank-Kamenetsky M. et al. (J. Biol., 2002, 1, 10), was tested under the same conditions as those used to test the various compounds with formula (I) as claimed in the invention.
The alkaline phosphatase activity measurement in the lysates obtained was then carried out using the method described by Pepinsky et al. (J. Biol. Chem., 1998, 273, 14037). After adding 100 μl of reaction buffer (200 mM Tris-HCl; pH 10.5; 0.4 M of 2-amino-2-methylpropanol and 8 mM of MgCl2) and 50 μl of substrate (4 mM of disodium p-nitrophenyl phosphate), the lysates were incubated at 37° C. for 30-60 min, then the optical density was read at a wavelength of 415 nm.

Compound: COc1cc(C(=O)NC(=S)Nc2cccc(NC(=O)c3ccccc3Cl)c2)cc(OC)c1OC [Compound 2, N-[[[3-(2-chloro-benzoylamino)phenyl]amino]thioxomethyl]-3,4,5-methoxy-benzamide]
- inhibition at 10 µM: > 80%
- IC50: 1 to 3 µM

Compound: COc1cccc(C(=O)Nc2cccc(NC(=S)NC(=O)c3cc(OC)c(OC)c(OC)c3)c2)c1 [Compound 3, N-[[[3-(3-methoxy-benzoylamino)phenyl]amino]thioxomethyl]-3,4,5-methoxy-benzamide]
- inhibition at 10 µM: > 80%
- IC50: 1 to 3 µM

Compound: COc1ccccc1C(=O)Nc1cccc(NC(=S)NC(=O)c2cc(OC)c(OC)c(OC)c2)c1 [Compound 4, N-[[[3-(2-methoxy-benzoylamino)phenyl]amino]thioxomethyl]-3,4,5-methoxy-benzamide]
- inhibition at 10 µM: > 80%
- IC50: 1 to 3 µM

Compound: COc1cc(C(=O)NC(=S)Nc2cccc(NC(=O)c3ccc(-c4ccccc4)cc3)c2)cc(OC)c1OC [Compound 5, N-[[[3-(4-phenyl-benzoylamino)phenyl]amino]thioxomethyl]-3,4,5-methoxy-benzamide]
- inhibition at 10 µM: 20 to 80%
- IC50: 0.01 to 1 µM

Compound: COc1cc(C(=O)NC(=O)Nc2cccc(NC(=O)c3ccc(-c4ccccc4)cc3)c2)cc(OC)c1OC [Compound 7, N-[[[3-(4-phenyl-benzoylamino)phenyl]amino]oxomethyl]-3,4,5-methoxy-benzamide]
- inhibition at 10 µM: 20 to 80%

Compound: COc1cc(C(=O)NC(=S)Nc2cccc(NC(=O)C3CCCCC3)c2)cc(OC)c1OC [Compound 8, N-[[[3-(-cyclohexylcarboxylamino)phenyl]amino]thioxomethyl]-3,4,5-methoxy-benzamide]
- inhibition at 10 µM: 20 to 80%

Compound: COc1cc(C(=O)NC(=S)Nc2cccc(NC(=O)c3ccc4ccccc4c3)c2)cc(OC)c1OC [Compound 9, N-[[[3-(2-naphthoylamino)phenyl]amino]thioxomethyl]-3,4,5-methoxy-benzamide]
- inhibition at 10 µM: 20 to 80%

Compound: COc1cc(C(=O)NC(=S)Nc2cccc(NC(=O)C(C)C)c2)cc(OC)c1OC [Compound 10, N-[[[3-(isopropoylcarboxylamino)phenyl]amino]thioxomethyl]-3,4,5-methoxy-benzamide]
- inhibition at 10 µM: 5 to 20%

Compound: COc1cc(C(=O)NC(=S)Nc2cccc(NC(=O)c3ccncc3)c2)cc(OC)c1OC [Compound 11, N-[[[3-(4-pyridocarboxylamino)phenyl]amino]thioxomethyl]-3,4,5-methoxy-benzamide]
- inhibition at 10 µM: > 80%

Compound: COc1cc(C(=O)NC(=S)Nc2cccc(NC(=O)c3cccc4ccccc34)c2)cc(OC)c1OC [Compound 12, N-[[[3-(1-naphthoylamino)phenyl]amino]thioxomethyl]-3,4,5-methoxy-benzamide]
- inhibition at 10 µM: 20 to 80%

Compound: COc1cc(C(=O)NC(=S)Nc2cccc(NC(=O)c3ccc(Cl)cc3)c2)cc(OC)c1OC [Compound 13, N-[[[3-(4-chloro-benzoylamino)phenyl]amino]thioxomethyl]-3,4,5-methoxy-benzamide]
- inhibition at 10 µM: > 80%
- IC50: 0.01 to 1 µM

Compound: COc1cc(C(=O)NC(=S)Nc2cccc(NC(=O)c3ccco3)c2)cc(OC)c1OC [Compound 14, N-[[[3-(2-furoylamino)phenyl]amino]thioxomethyl]-3,4,5-methoxy-benzamide]
- inhibition at 10 µM: 20 to 80%

Compound: COc1cc(C(=O)NC(=S)Nc2cccc(NC(=O)c3cccs3)c2)cc(OC)c1OC [Compound 15, N-[[[3-(2-thiophenoylamino)phenyl]amino]thioxomethyl]-3,4,5-methoxy-benzamide]
- inhibition at 10 µM: 20 to 80%

Compound: COc1cc(C(=O)NC(=O)Nc2cccc(NC(=O)c3ccc4ccccc4c3)c2)cc(OC)c1OC [Compound 16, N-[[[3-(2-naphthoylamino)phenyl]amino]oxomethyl]-3,4,5-methoxy-benzamide]
- inhibition at 10 µM: 5 to 20%

Compound: COc1cc(C(=O)NC(=O)Nc2cccc(NC(=O)C(C)C)c2)cc(OC)c1OC [Compound 17]
- inhibition at 10 µM: > 80%

Compound: COc1cc(OC)cc(C(=O)NC(=S)Nc2cccc(NC(=O)c3ccccc3)c2)c1 [Compound 18, N-[[[3-(benzoylamino)phenyl]amino]thioxomethyl]-3,5-methoxy-benzamide]
- inhibition at 10 µM: > 80%
- IC50: 1 to 3 µM

Compound: CCOc1c(OC)cc(C(=O)NC(=S)Nc2cccc(NC(=O)c3ccccc3)c2)cc1OC [Compound 19, N-[[[3-(benzoylamino)phenyl]amino]thioxomethyl]-3,5-methoxy-4-ethoxy-benzamide]
- inhibition at 10 µM: > 80%
- IC50: 0.01 to 1 µM

Compound: CCOc1cc(C(=O)NC(=S)Nc2cccc(NC(=O)c3ccccc3)c2)cc(OC)c1OCC [Compound 20, N-[[[3-(benzoylamino)phenyl]amino]thioxomethyl]-3,4-ethoxy-5-methoxy-benzamide]
- inhibition at 10 µM: > 80%
- IC50: 0.01 to 1 µM

Compound: COc1cc(C(=O)NC(=S)Nc2cccc(NC(=O)c3ccccc3)c2)cc2c1OCO2 [Compound 21, N-[[[3-(benzoylamino)phenyl]amino]thioxomethyl]-3,4-methylenedioxy-5-methoxy-benzamide]
- inhibition at 10 µM: > 80%
- IC50: 1 to 3 µM

Compound: COc1ccc(C(=O)NC(=S)Nc2cccc(NC(=O)c3ccccc3)c2)c(OC)c1 [Compound 22, N-[[[3-(benzoylamino)phenyl]amino]thioxomethyl]-2,4-methoxy-benzamide]
- inhibition at 10 µM: 20 to 80%
- IC50: 1 to 3 µM

Compound: CCOc1cc(C(=O)NC(=S)Nc2cccc(NC(=O)c3ccccc3)c2)cc(OCC)c1OCC [Compound 23, N-[[[3-(benzoylamino)phenyl]amino]thioxomethyl]-3,4,5-ethoxy-benzamide]
- inhibition at 10 µM: > 80%
- IC50: 0.01 to 1 µM

Compound: COc1cc(C(=O)NC(=S)Nc2ccc(F)c(NC(=O)c3ccccc3)c2)cc(OC)c1OC [Compound 24, N-[[[4-fluoro-3-(benzoylamino)phenyl]amino]thioxomethyl]-3,4,5-methoxy-benzamide]
- inhibition at 10 µM: > 80%

Compound: COc1cc(C(=O)NC(=S)Nc2ccc(Cl)c(C(=O)Nc3ccccc3)c2)cc(OC)c1OC [Compound 25, N-[[[4-chloro-3-(phenylamino)carbonyl]amino]thioxomethyl]-3,4,5-methoxy-benzamide]
- inhibition at 10 µM: > 80%

Compound: COc1ccc(NC(=S)NC(=O)c2cc(OC)c(OC)c(OC)c2)cc1NC(=O)c1ccccc1 [Compound 26, N-[[[4-methoxy-3-(benzoylamino)phenyl]amino]thioxomethyl]-3,4,5-methoxy-benzamide]
- inhibition at 10 µM: 20 to 80%

Compound: COc1cc(C(=O)NC(=S)Nc2ccc(C)c(NC(=O)c3ccccc3)c2)cc(OC)c1OC [Compound 27, N-[[[4-methyl-3-(benzoylamino)phenyl]amino]thioxomethyl]-3,4,5-Methoxy-benzamide]
- inhibition at 10 µM: 20 to 80%

Compound: O=C(NC(=S)Nc1cccc(NC(=O)c2ccccc2)c1)c1ccc2c(c1)OCCO2 [Compound 28, N-[[[3-(benzoylamino)phenyl]amino]thioxomethyl]-3,4-ethylenedioxo-benzamide]
- inhibition at 10 µM: 5 to 20%

Compound: CCOc1cc(C(=O)NC(=O)Nc2cccc(NC(=O)c3ccccc3)c2)cc(OCC)c1OCC [Compound 29, N-[[[3-(benzoylamino)phenyl]amino]oxomethyl]-3,4,5-ethoxy-benzamide]
- inhibition at 10 µM: 20 to 80%

Compound: COc1cc(C(=O)NC(=O)Nc2cccc(NC(=O)c3ccccc3)c2)cc2c1OCO2 [Compound 30, N-[[[3-(benzoylamino)phenyl]amino]oxomethyl]-3,4-methylenedioxy-5-methoxy-benzamide]
- inhibition at 10 µM: 5 to 20%

Compound: COc1cc(C(=O)NC(=O)Nc2ccc(Cl)c(NC(=O)c3ccccc3)c2)cc(OC)c1OC [Compound 33, N-[[[4-chloro-3-(benzoylamino)phenyl]amino]oxomethyl]-3,4,5-methoxy-benzamide]
- inhibition at 10 µM: 20 to 80%

Compound: COc1cc(C(=O)NC(=S)Nc2ccc(Cl)c(NC(=O)c3ccccc3)c2)cc(OC)c1OC [Compound 34, N-[[[4-chloro-3-(benzoylamino)phenyl]amino]thioxomethyl]-3,4,5-methoxy-benzamide]
- inhibition at 10 µM: > 80%
- IC50: 0.01 to 1 µM

Compound: COc1cc(C(=O)NC(=S)Nc2cc(Cl)cc(NC(=O)c3ccccc3)c2)cc(OC)c1OC [Compound 35, N-[[[5-chloro-3-(benzoylamino)phenyl]amino]thioxomethyl]-3,4,5-methoxy-benzamide]
- inhibition at 10 µM: 20 to 80%

Compound: COc1cc(C(=O)NC(=O)Nc2ccc(Cl)c(NC(=O)c3ccc(-c4ccccc4)cc3)c2)cc(OC)c1OC [Compound 37, N-[[[4-Chloro-3-(4-phenyl-benzoylamino)phenyl]amino]oxomethyl]-3,4,5-methoxy-benzamide]
- inhibition at 10 µM: 20 to 80%

From US9073835B2, “N-acylthiourea and N-acylurea inhibitors of the Hedgehog protein signalling pathway” (Centre National De La Recherche Scientifique, priority 2008, dated 2015)
